Values joined by “and” are separate entries in the source; they are usually repeats but may differ in a detail not shown here. Identical values can stand only once. Like-named read-outs stand apart in the source and are kept apart here.
Experiments:
Type in all cases: cell-based
[1] = target: T1, protein kinases (human kinome) (Homo sapiens, UniProt O14965)
T1 sequence (O14965 1-403): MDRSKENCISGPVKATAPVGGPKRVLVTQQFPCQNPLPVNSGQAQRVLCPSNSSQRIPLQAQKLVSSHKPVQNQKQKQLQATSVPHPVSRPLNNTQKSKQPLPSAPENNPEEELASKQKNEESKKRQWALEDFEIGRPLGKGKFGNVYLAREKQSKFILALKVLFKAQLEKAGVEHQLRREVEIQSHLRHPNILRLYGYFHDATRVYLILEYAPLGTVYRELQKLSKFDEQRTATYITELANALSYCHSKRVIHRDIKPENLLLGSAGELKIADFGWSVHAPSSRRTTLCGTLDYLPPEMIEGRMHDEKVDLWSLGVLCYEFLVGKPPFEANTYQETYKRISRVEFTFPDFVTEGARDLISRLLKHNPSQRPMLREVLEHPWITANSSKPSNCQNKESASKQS

[2] = target: protein kinases (human kinome) (Homo sapiens, UniProt Q9H0K1); conditions: for logFC of SIK2: Accession Q9H0K1; for logFC SIK2 (Q9H0K1): direction of change down
Sequence of protein kinases (human kinome) (Homo sapiens, UniProt Q9H0K1) (Q9H0K1 whole entry): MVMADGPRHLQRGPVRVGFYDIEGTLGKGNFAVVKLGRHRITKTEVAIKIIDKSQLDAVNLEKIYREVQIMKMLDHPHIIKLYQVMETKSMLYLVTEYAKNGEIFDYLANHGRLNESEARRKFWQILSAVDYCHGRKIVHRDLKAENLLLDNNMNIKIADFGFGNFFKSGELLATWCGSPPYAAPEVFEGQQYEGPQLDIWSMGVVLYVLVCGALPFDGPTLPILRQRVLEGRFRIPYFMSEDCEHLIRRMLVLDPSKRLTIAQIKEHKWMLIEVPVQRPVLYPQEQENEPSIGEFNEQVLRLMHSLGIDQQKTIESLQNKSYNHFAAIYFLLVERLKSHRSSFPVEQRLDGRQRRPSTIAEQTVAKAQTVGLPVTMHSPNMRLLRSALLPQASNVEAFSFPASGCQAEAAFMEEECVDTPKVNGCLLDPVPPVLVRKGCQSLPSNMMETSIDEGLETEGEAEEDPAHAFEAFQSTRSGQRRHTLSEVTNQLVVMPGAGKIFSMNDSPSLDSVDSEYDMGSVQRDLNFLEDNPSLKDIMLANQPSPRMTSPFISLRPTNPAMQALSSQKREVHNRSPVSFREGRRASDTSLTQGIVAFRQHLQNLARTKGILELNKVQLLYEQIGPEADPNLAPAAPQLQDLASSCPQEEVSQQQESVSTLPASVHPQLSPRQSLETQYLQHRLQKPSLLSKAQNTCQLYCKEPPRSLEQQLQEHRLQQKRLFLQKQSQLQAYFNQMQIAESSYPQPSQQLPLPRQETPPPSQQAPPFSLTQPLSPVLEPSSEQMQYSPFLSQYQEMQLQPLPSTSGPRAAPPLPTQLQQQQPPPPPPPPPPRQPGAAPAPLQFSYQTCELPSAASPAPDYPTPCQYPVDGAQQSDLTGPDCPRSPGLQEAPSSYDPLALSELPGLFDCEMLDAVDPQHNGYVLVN

[3] = system: protein kinases (human kinome); conditions: for logFC of SRC: Accession P12931-2; for logFC of FER: FER P16591-3; for logFC LCK: accession P06239-3; for logFC PTK2B: accession Q14289-2
[4] = Experiment wp107, direction down
[5] = Experiment wp117, direction down
[6] = experiment wp045, direction of change down
[7] = experiment wp103, direction of change down
[8] = experiment wp107, direction of change down
[9] = experiment wp117, direction of change down

SMILES: Cc1ccc(NC(=O)c2cccc(C(F)(F)F)c2)cc1N1Cc2cnc(Nc3ccc(N4CCN(Cc5cn(CCCCCOc6cccc7c6C(=O)N(C6CCC(=O)NC6=O)C7=O)nn5)CC4)nc3)nc2N(C)C1=O (centres unmarked) [DB0646, N-(3-(7-((6-(4-((1-(5-((2-(2,6-Dioxopiperidin-3-yl)-1,3-dioxoisoindolin-4-yl)oxy)pentyl)-1H-1,2,3-triazol-4-yl)methyl)piperazin-1-v)pyridin-3-yl)amino)-1-methyl-2-oxo-1,4-dihydropyrimido[4,5-d]pyrimidin-3(2H)-yl)-4-methylphenyl)-3-(trifluoromethyl)benzamide]
- logFC AURKA (O14965) ([1]; experiment wp045): −0.3242
- logFC AURKA (O14965) ([1]; experiment wp160, 4 hr): −0.4478
- logFC of SIK2 ([2]; experiment wp045): −0.638
- logFC of SIK2 ([2]; experiment wp107): −0.5933
- logFC of SIK2 ([2]; experiment wp114): −0.4347
- logFC of SIK2 ([2]; experiment wp117): −0.4315
- logFC of SIK2 ([2]; experiment wp160, 4 hr): −0.5421
- logFC of SIK2 ([2]; experiment wp160, 8 hr): −0.5707
- logFC SIK2 (Q9H0K1) ([2]; Experiment wp114): −0.4347
- logFC SIK2 ([2]; SIK2 (Q9H0K1), experiment wp045, down): −0.638
- logFC SIK2 (Q9H0K1) ([2]; experiment wp107): −0.5933
- logFC SIK2 (Q9H0K1) ([2]; experiment wp117): −0.4315
- logFC SIK2 (Q9H0K1) ([2]; experiment wp160, 4 hr): −0.5421
- logFC SIK2 (Q9H0K1) ([2]; experiment wp160, 8 hr): −0.5707
- logFC FYN ([3]; Accession P06241-2, experiment wp107): −0.3999
- logFC FYN ([3]; Accession P06241-2, experiment wp160, 4 hr): −0.3922
- logFC of SRC ([3]; experiment wp045): −0.4152
- logFC of SRC ([3]; experiment wp105): −0.4412
- logFC of SRC ([3]; experiment wp107): −0.4274
- logFC of SRC ([3]; experiment wp117): −0.3839
- logFC ([3]; CDK11B P21127-3, experiment wp103): −0.3334
- logFC MAP3K20 (Q9NYL2-2) ([3]; Experiment wp045): −1.182
- logFC MAPK8 (P45983-4) ([3]; Experiment wp045, direction down): −0.9774
- logFC MAP3K20 (Q9NYL2-2) ([3]; Experiment wp103): −0.7004
- logFC of MAPK8 (P45983-2) ([3]; Experiment wp103): −0.6109
- logFC MAPK8 (P45983-2) ([3]; Experiment wp103, direction down): −0.6109
- logFC MAPK8 (P45983-3) ([3]; Experiment wp105, direction down): −0.4094
- logFC MAP3K20 (Q9NYL2-2) ([3]; Experiment wp107): −0.7825
- logFC of MAPK8 (P45983-2) ([3]; Experiment wp107): −0.723
- logFC MAPK8 (P45983-2) [3, 4]: −0.723
- logFC TNK2 (Q07912-3) [3, 4]: −0.8258
- logFC MAP3K20 (Q9NYL2-2) ([3]; Experiment wp114): −0.8962
- logFC MAP3K20 (Q9NYL2-2) ([3]; Experiment wp117): −0.6701
- logFC of MAPK8 (P45983-2) ([3]; Experiment wp117): −0.7835
- logFC MAPK8 (P45983-2) [3, 5]: −0.7835
- logFC TNK2 (Q07912-3) [3, 5]: −0.9833
- logFC MAPK8 (P45983-3) ([3]; Experiment wp160, 4 hr, direction down): −0.611
- logFC MAPK8 (P45983-3) ([3]; Experiment wp160, 8 hr, direction down): −1.01
- logFC ([3]; FER (P16591-3), experiment wp114, direction down): −0.5921
- logFC ([3]; FER (P16591-3), experiment wp172, direction down): −1.014
- logFC of FER ([3]; experiment wp114): −0.5921
- logFC of FER ([3]; experiment wp172): −1.014
- logFC FYN ([3]; FYN P06241-2, experiment wp107): −0.3999
- logFC FYN ([3]; FYN P06241-2, experiment wp160, 4 hr): −0.3922
- logFC ([3]; GK P32189-3, experiment wp114): −0.3632
- logFC LCK [3, 6]: −0.5631
- logFC LCK [3, 7]: −0.4496
- logFC LCK [3, 8]: −0.3963
- logFC LCK [3, 9]: −0.4202
- logFC ([3]; LIMK2 (P53671-3), experiment wp105, direction down): −0.7299
- logFC of LIMK2 ([3]; LIMK2 P53671-3, experiment wp105): −0.7299
- logFC ([3]; LYN (P07948-2), experiment wp105): −0.985
- logFC MAPK8 ([3]; MAPK8 P45983-4, experiment wp045): −0.9774
- logFC MAPK14 ([3]; MAPK14, accession Q16539-2, experiment wp105, direction of change down): −0.5822
- logFC MAPK14 ([3]; MAPK14, accession Q16539-2, experiment wp117, direction of change down): −0.6436
- logFC MAPK14 ([3]; MAPK14, accession Q16539-2, experiment wp160, 4 hr, direction of change down): −0.7051
- logFC MAPK14 ([3]; MAPK14, accession Q16539-2, experiment wp160, 8 hr, direction of change down): −1.092
- logFC MAPK14 ([3]; MAPK14 Q16539-2, experiment wp105): −0.5822
- logFC MAPK14 ([3]; MAPK14 Q16539-2, experiment wp117): −0.6436
- logFC MAPK14 ([3]; MAPK14 Q16539-2, experiment wp160, 4 hr): −0.7051
- logFC MAPK14 ([3]; MAPK14 Q16539-2, experiment wp160, 8 hr): −1.092
- targets with significantly different degrader efficacy in the different cell lines with no obvious difference in protein expression ([3]; MOLT-4, KELLY, HEK293T): CSK, MAPK9
- logFC ([3]; PTK2B (Q14289-2), experiment wp107, direction down): −2.484
- logFC ([3]; PTK2B (Q14289-2), experiment wp117, direction down): −2.583
- logFC PTK2B [3, 8]: −2.484
- logFC PTK2B [3, 9]: −2.583
- logFC ([3]; SRC (P12931-2) protein abundance, degrader vs DMSO, down): −0.4152 and −0.4412 and −0.4274 and −0.3839
- logFC ([3]; TAOK2 (Q9UL54-2), experiment wp160, 8 hr): −0.5973
- logFC ([3]; TNK2 (Q07912-3), experiment wp107, direction down): −0.8258
- logFC ([3]; TNK2 (Q07912-3), experiment wp117, direction down): −0.9833
- logFC MAP3K20 (Q9NYL2-2) ([3]; experiment wp045): −1.182
- logFC LCK (P06239-3) [3, 6]: −0.5631
- logFC MAP3K20 (Q9NYL2-2) ([3]; experiment wp103): −0.7004
- logFC CDK11B (P21127-3) [3, 7]: −0.3334
- logFC LCK (P06239-3) [3, 7]: −0.4496
- logFC of LYN (P07948-2) ([3]; experiment wp105): −0.985
- logFC of MAPK8 (P45983-3) ([3]; experiment wp105): −0.4094
- logFC MAP3K20 (Q9NYL2-2) ([3]; experiment wp107): −0.7825
- logFC LCK (P06239-3) [3, 8]: −0.3963
- logFC MAP3K20 (Q9NYL2-2) ([3]; experiment wp114): −0.8962
- logFC MAP3K20 (Q9NYL2-2) ([3]; experiment wp117): −0.6701
- logFC LCK (P06239-3) [3, 9]: −0.4202
- logFC of MAPK8 (P45983-3) ([3]; experiment wp160, 4 hr): −0.611
- logFC of MAPK8 (P45983-3) ([3]; experiment wp160, 8 hr): −1.01
- logFC TAOK2 (Q9UL54-2) ([3]; experiment wp160, 8 hr, direction of change down): −0.5973
- Total no. kinase hits ([3]; number of degraded kinases per library compound): 33

From patent publication US20240269139A1, “COMPOUNDS FOR TARGETED PROTEIN DEGRADATION OF KINASES” (DANA-FARBER CANCER INSTITUTE, INC., priority 2020, published 2024)
